Drawing on publication doi:10.1101/2024.08.19.608619, “Discovery of potent SARS-CoV-2 nsp3 macrodomain inhibitors uncovers lack of translation to cellular antiviral response” (bioRxiv, 2024), this text covers remaining activity for seven compounds.

Assay in all cases: biochemical
Parameters in all cases: In vitro kinase panel profiling, per cent remaining kinase activity at 10 uM

One assay has as its target JAK2(h) (Homo sapiens, UniProt O60674). The conditions noted are these: atp_concentration=45, read-out: % of control remaining. From the text:
(§1) We derisk potential for off-target activity by profiling the compound in a CEREP panel, a standard secondary pharmacology assessment, as well as a kinase panel to derisk a potential hinge-binding motif in our leads, and a PARP panel to derisk activity against human […]. Reassuringly, the compounds are selective, with the only off-targets being moderate human CHRM2 and KOR receptors activity associated with ASAP-0011198.

The target of a further assay is T1, EphB4(h) (Homo sapiens, UniProt P54760).
T1 sequence (P54760 1-987): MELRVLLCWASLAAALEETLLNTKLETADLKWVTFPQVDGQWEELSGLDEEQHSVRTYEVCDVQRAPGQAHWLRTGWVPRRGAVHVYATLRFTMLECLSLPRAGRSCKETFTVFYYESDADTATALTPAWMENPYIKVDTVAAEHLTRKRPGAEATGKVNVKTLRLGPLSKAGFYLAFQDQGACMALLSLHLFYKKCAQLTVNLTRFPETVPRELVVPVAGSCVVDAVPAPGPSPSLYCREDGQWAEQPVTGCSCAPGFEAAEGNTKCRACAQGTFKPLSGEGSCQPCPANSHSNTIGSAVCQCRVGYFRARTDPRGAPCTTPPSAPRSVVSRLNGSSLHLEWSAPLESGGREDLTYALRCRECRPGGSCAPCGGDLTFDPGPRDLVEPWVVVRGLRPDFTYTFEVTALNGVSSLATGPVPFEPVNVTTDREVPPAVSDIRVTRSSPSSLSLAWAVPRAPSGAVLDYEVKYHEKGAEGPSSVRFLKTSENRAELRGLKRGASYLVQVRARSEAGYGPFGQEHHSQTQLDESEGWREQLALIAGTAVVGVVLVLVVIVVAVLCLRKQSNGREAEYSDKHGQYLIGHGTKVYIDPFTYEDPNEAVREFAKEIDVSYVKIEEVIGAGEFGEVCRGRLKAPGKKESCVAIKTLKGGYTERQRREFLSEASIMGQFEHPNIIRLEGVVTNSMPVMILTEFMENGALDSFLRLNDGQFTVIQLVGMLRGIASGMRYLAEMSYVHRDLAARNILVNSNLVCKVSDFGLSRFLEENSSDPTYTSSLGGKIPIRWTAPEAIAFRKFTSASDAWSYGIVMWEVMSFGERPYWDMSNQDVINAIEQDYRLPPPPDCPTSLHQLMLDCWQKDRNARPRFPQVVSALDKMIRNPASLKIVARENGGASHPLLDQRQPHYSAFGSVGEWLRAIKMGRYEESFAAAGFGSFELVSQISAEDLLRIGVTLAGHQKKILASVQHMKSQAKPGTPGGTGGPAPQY
The conditions noted are these: atp_concentration=10, read-out: % of control remaining.
From the text: as §1

The next assay concerns the target Lyn(h) (Homo sapiens, UniProt P07948). Conditions: atp_concentration=70, read-out: % of control remaining.
From the text: as §1

A further assay has as its target T2, PI3 Kinase (p120γ)(h) (Homo sapiens, UniProt P48736).
T2 construct: gene PIK3CG
The conditions noted are these: atp_concentration=100, read-out: % of control remaining.
From the text: as §1

The target of the next assay is T3, PRAK(h) (Homo sapiens, UniProt Q8IW41).
T3 construct: gene MAPKAPK5
T3 sequence (Q8IW41 1-473): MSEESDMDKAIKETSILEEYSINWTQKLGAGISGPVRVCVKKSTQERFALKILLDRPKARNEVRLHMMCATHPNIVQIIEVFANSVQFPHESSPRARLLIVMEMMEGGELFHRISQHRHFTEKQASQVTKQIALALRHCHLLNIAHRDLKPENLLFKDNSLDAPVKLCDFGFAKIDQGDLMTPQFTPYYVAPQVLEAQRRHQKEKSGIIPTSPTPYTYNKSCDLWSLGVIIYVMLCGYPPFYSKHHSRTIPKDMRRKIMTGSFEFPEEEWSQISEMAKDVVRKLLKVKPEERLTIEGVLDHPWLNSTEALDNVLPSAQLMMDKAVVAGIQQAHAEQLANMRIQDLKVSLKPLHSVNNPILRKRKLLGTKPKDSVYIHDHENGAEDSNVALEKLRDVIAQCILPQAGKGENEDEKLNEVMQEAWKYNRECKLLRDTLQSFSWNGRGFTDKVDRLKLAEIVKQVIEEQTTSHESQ
The conditions noted are these: atp_concentration=15, read-out: % of control remaining.
From the text: as §1

For the next assay, the target named is CDK9/cyclin T1(h) (Homo sapiens, UniProt P50750). Conditions: atp_concentration=45, read-out: % of control remaining.
From the text: as §1

A further assay addresses T4, LOK(h) (Homo sapiens, UniProt O94804).
T4 construct: gene STK10
The conditions noted are these: atp_concentration=120, read-out: % of control remaining.
From the text: as §1

Each structure is given as a SMILES string. Like-named read-outs stand apart in the source and are kept apart here.

Sequence of CDK9/cyclin T1(h) (P50750 whole entry): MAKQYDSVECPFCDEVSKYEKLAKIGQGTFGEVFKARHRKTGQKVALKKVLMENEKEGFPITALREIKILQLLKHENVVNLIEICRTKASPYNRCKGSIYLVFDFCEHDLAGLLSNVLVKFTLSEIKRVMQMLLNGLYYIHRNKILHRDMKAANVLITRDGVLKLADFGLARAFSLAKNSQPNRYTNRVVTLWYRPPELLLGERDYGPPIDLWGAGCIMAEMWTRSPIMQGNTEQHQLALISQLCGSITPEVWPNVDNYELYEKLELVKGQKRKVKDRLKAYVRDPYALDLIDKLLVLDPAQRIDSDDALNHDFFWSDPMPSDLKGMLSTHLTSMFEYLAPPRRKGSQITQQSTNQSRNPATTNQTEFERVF
Sequence of CDK9/cyclin T1(h) (O60563 whole entry partner): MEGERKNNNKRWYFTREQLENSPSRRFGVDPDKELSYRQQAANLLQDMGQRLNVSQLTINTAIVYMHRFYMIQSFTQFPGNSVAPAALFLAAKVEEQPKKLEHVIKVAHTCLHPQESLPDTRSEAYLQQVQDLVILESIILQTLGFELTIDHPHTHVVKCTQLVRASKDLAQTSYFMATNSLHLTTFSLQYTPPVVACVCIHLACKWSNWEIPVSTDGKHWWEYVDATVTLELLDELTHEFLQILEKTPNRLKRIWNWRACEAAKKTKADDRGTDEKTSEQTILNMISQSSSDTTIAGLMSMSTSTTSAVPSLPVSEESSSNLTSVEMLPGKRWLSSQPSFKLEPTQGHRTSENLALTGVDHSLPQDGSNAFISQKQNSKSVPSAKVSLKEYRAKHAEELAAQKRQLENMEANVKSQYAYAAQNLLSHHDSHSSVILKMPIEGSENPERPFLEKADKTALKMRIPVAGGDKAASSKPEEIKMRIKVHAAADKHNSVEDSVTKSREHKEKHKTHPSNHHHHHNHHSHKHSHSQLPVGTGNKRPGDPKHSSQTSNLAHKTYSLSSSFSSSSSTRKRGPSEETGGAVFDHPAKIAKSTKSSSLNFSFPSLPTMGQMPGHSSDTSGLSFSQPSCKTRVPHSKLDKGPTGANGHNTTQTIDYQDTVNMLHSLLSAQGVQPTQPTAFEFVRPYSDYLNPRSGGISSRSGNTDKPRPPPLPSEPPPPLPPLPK
Sequence of Lyn(h) (P07948 whole entry): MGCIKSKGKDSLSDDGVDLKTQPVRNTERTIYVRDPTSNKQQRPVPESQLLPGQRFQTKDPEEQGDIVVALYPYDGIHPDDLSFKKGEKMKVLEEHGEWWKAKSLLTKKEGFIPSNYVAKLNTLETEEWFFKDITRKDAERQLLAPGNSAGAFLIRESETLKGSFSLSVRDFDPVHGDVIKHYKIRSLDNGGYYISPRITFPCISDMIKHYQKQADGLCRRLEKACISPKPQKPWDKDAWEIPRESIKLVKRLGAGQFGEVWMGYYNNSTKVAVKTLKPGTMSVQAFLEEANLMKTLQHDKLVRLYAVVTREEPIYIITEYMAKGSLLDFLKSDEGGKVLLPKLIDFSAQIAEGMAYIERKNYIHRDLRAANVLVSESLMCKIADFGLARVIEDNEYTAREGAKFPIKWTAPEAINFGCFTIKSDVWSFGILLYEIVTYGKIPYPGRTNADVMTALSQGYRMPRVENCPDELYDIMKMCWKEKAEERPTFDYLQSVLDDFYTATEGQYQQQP
T2 sequence (P48736 whole entry): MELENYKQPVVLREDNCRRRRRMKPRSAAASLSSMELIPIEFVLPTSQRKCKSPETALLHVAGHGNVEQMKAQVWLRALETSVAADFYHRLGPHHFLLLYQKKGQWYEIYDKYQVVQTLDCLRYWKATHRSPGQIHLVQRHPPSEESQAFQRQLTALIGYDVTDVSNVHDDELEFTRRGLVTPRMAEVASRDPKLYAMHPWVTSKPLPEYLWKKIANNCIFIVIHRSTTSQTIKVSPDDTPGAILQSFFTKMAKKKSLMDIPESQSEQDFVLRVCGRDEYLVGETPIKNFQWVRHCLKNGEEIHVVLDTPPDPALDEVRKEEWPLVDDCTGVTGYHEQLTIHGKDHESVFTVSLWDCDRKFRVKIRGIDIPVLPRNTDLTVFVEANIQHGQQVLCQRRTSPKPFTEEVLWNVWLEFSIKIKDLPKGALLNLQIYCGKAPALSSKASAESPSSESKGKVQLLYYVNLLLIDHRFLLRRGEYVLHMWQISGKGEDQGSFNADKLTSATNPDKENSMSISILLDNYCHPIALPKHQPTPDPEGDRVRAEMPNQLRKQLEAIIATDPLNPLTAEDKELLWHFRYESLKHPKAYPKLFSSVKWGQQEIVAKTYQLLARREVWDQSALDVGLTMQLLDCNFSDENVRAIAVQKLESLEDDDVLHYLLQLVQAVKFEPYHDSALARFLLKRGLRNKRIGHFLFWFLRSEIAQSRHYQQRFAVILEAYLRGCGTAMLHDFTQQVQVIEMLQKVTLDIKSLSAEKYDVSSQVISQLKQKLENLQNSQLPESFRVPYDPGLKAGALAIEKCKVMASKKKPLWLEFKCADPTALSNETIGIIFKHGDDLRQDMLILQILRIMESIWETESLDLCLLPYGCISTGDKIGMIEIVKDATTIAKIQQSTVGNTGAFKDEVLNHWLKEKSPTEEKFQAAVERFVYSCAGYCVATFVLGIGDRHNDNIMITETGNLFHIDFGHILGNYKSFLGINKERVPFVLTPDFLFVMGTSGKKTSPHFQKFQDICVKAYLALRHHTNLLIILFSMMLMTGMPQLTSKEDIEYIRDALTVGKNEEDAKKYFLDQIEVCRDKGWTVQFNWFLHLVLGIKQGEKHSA
T4 sequence (O94804 whole entry): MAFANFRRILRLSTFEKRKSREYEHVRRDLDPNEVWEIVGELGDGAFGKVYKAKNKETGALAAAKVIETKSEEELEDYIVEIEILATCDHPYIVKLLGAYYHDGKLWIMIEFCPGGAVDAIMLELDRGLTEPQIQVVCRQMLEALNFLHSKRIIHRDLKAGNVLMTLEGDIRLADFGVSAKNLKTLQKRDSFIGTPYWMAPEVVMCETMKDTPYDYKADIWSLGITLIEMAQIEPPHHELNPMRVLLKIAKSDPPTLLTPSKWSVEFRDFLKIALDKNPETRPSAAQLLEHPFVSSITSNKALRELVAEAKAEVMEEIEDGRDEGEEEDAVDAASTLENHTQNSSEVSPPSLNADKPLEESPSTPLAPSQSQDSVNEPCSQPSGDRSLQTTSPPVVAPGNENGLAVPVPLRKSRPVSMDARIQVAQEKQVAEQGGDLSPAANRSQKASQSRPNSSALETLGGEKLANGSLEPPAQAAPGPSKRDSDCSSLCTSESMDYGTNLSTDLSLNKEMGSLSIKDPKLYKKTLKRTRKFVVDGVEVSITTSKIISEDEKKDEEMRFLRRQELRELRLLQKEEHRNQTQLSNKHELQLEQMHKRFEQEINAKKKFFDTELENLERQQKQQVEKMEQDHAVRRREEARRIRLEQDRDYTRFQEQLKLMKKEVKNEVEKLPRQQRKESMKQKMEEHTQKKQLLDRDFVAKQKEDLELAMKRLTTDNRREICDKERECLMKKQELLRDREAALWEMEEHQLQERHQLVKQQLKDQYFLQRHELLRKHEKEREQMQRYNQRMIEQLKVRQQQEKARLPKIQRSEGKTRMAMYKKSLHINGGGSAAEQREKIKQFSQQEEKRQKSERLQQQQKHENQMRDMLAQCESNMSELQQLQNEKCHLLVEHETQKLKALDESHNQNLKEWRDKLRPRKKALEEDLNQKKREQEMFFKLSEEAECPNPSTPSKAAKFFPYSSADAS
Sequence of JAK2(h) (O60674 whole entry): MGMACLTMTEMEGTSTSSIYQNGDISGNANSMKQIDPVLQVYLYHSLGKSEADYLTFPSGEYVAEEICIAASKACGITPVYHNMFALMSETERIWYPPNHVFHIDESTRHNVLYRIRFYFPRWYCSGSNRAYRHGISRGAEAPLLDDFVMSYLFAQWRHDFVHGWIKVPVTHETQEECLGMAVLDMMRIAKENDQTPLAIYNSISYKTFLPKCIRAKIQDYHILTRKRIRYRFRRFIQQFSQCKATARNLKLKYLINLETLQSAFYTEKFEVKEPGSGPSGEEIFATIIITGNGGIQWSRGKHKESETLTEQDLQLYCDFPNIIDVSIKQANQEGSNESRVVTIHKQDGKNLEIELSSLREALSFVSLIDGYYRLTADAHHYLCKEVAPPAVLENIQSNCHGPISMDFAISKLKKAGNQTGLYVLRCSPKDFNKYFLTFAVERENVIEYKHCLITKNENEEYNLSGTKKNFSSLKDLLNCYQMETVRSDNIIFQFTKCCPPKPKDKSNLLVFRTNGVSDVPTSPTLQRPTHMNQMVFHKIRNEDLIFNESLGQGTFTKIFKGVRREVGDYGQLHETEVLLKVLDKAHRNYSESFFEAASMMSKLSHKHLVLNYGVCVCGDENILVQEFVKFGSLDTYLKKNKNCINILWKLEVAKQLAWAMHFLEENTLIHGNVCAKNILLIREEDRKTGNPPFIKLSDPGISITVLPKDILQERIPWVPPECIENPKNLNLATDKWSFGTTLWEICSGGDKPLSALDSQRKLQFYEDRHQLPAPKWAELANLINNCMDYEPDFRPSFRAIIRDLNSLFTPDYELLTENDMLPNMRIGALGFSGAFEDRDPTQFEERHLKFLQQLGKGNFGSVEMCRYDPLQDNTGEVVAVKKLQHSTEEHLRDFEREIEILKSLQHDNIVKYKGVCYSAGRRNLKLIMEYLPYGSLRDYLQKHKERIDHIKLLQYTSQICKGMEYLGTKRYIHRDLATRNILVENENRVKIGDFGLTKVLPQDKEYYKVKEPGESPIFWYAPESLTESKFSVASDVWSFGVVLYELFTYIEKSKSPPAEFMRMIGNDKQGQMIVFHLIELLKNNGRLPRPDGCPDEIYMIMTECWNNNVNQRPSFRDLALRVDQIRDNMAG

Consider `CC(C)C(Nc1ncnc2[nH]ccc12)c1ccc2c(c1)S(=O)(=O)CCC2` (stereo not shown) [ASAP-0008327], for which the remaining activity at 10 µM on JAK2(h) (batch_name=ASAP-0008327-001) turned out to be 110%; at EphB4(h) (batch_name=ASAP-0008327-001), 91%; at Lyn(h) (batch_name=ASAP-0008327-001), 112%; at PI3 Kinase (p120γ)(h) (batch_name=ASAP-0008327-001), 103%; on PRAK(h) (batch_name=ASAP-0008327-001), 107%; at CDK9/cyclin T1(h) (batch_name=ASAP-0008327-001) it was 114%. Besides, the remaining activity at 10 µM at LOK(h) (batch_name=ASAP-0008327-001) was found to be 104%.

For `COc1ccc([C@@H](Cc2nnn[nH]2)NC(=O)c2ncnc3[nH]ccc23)cc1` [ASAP-0008340], the remaining activity at 10 µM came to 102% at JAK2(h) (batch_name=ASAP-0008340-001); 88% on EphB4(h) (batch_name=ASAP-0008340-001); 111% at Lyn(h) (batch_name=ASAP-0008340-001); 89% at PI3 Kinase (p120γ)(h) (batch_name=ASAP-0008340-001); 95% at PRAK(h) (batch_name=ASAP-0008340-001); 117% on CDK9/cyclin T1(h) (batch_name=ASAP-0008340-001). Moreover, at LOK(h) (batch_name=ASAP-0008340-001), the remaining activity at 10 µM was found to be 96%.

As to `CC(C)[C@@H](Nc1ncnc2[nH]c(-c3cnn(C)c3C#N)cc12)c1ccc2c(n1)OCCO2` [ASAP-0008418], the remaining activity at 10 µM at JAK2(h) (batch_name=ASAP-0008418-001) stood at 101%; at EphB4(h) (batch_name=ASAP-0008418-001), 75%; at Lyn(h) (batch_name=ASAP-0008418-001), 61%; at PI3 Kinase (p120γ)(h) (batch_name=ASAP-0008418-001) it was 63%; at PRAK(h) (batch_name=ASAP-0008418-001), 95%; on CDK9/cyclin T1(h) (batch_name=ASAP-0008418-001) it was 45%. In addition, the remaining activity at 10 µM on LOK(h) (batch_name=ASAP-0008418-001) worked out at 47%.

Regarding `CC(C)[C@H](Nc1ncnc2[nH]ccc12)c1ccc2c(c1)S(=O)(=O)CCC2` [ASAP-0008674], the remaining activity at 10 µM was 99% on JAK2(h) (batch_name=ASAP-0008674-002); 86% on EphB4(h) (batch_name=ASAP-0008674-002); 104% on Lyn(h) (batch_name=ASAP-0008674-002); 98% at PI3 Kinase (p120γ)(h) (batch_name=ASAP-0008674-002); 102% at PRAK(h) (batch_name=ASAP-0008674-002); 112% on CDK9/cyclin T1(h) (batch_name=ASAP-0008674-002). Moreover, the remaining activity at 10 µM at LOK(h) (batch_name=ASAP-0008674-002) is 102%.

Consider `CC(C)[C@H](Nc1ncnc2[nH]c(-c3cnn(C)c3C#N)cc12)c1ccc2c(n1)OCCO2` [ASAP-0010715], for which the remaining activity at 10 µM at JAK2(h) (batch_name=ASAP-0010715-002) is 115%; on EphB4(h) (batch_name=ASAP-0010715-002) it was 89%; on Lyn(h) (batch_name=ASAP-0010715-002), 79%; on PI3 Kinase (p120γ)(h) (batch_name=ASAP-0010715-002), 80%; at PRAK(h) (batch_name=ASAP-0010715-002), 84%; on CDK9/cyclin T1(h) (batch_name=ASAP-0010715-002) it was 79%. In addition, on LOK(h) (batch_name=ASAP-0010715-002), the remaining activity at 10 µM turned out to be 45%.

On to `CC(C)[C@@H](Nc1ncnc2[nH]c(-c3cnn(C)c3C#N)cc12)c1ccc2c(n1)OCCO2` [ASAP-0010716], for which the remaining activity at 10 µM worked out at 123% at JAK2(h) (batch_name=ASAP-0010716-002); 91% at EphB4(h) (batch_name=ASAP-0010716-002); 96% at Lyn(h) (batch_name=ASAP-0010716-002); 78% on PI3 Kinase (p120γ)(h) (batch_name=ASAP-0010716-002); 89% on PRAK(h) (batch_name=ASAP-0010716-002); 84% at CDK9/cyclin T1(h) (batch_name=ASAP-0010716-002). The remaining activity at 10 µM on LOK(h) (batch_name=ASAP-0010716-002) worked out at 106%.

With `CNCc1cc(-c2cc3c(N[C@@H](c4ccc5c(c4)S(=O)(=O)CCC5)C(C)C)ncnc3[nH]2)co1` [ASAP-0011176], the remaining activity at 10 µM at JAK2(h) (batch_name=ASAP-0011176-002) was 114%; on EphB4(h) (batch_name=ASAP-0011176-002), 92%; at Lyn(h) (batch_name=ASAP-0011176-002), 47%; at PI3 Kinase (p120γ)(h) (batch_name=ASAP-0011176-002) it was 96%; on PRAK(h) (batch_name=ASAP-0011176-002), 122%; at CDK9/cyclin T1(h) (batch_name=ASAP-0011176-002) it was 40%. Moreover, the remaining activity at 10 µM on LOK(h) (batch_name=ASAP-0011176-002) worked out at 92%.
